Reference: US9408853B2, “Iridium/rhodium anti-cancer compounds” (University of Warwick, priority 2010, dated 2016)

test system: not listed separately; test: Kinetics of hydrolysis followed by 1H NMR; assay type: physicochemical; settings: 1H NMR, even at 278K
Description: Kinetics for Hydrolysis. Although complexes ZL01-ZL04, ZL07, ZL38 and ZL43 hydrolyzed too rapidly to monitor by ^1H NMR, The kinetics of hydrolysis for complexes ZL25, ZL33, ZL37 and ZL54 were followed by ^1H NMR at different temperatures. For this, solutions of the complexes with a final concentration of 0.2 mM in 5% MeOD-d4/95% D2O (v/v) were prepared by dissolution of the complexes in MeOD-d4 followed by rapid dilution using D2O with a pH* of about 3 (acidified with HClO4), so that the aqua ligand was not deprotonated. ^1H NMR spectra were taken after various time intervals. The rates of hydrolysis were determined by fitting plots of concentrations (determined from ^1H NMR peak integrals) versus time to a pseudo first-order equation using ORIGIN version 7.0. The Arrhenius activation energy (Ea), activation enthalpies (ΔH^¢), and activation entropy (ΔS^‡) for compounds ZL25, ZL33, ZL37 and ZL54 were determined from the slopes of the Arrhenius and intercepts of Eyring plots.
The rates of hydrolysis of compounds ZL01-ZL04, ZL07, ZL25, ZL33, ZL37, ZL38, ZL43 and ZL54 in a 5% MeOD-d4/95% D2O were monitored by ^1H NMR at different temperature from 278 to 298 K by the observation of new peaks over time due to aqua adduct formation. Five percent MeOD was used to improve solubility, and acidic conditions (D2O, pH* 3) were used to prevent the deprotonation of the aqua complex as a secondary reaction. […] The percentage of aqua peak formation for ZL25, ZL33, ZL37 and ZL54 was plotted against time and was fitted to pseudofirst order kinetics (FIG. 3), and their halflife times were calculated (Table 1). The Arrhenius activation energy (Ea), activation enthalpy (ΔH^¢), and activation entropy (ΔS^‡) of compound ZL25, ZL33, ZL37 and ZL54 are listed in Table 4. The large negative ΔS^‡value for compound ZL54 is notable. The extent of hydrolysis at equilibrium is medium for all compounds, ranged from 30% to 60%.

SMILES	rate of hydrolysis (in words)
Cc1c(C)c(-c2ccc(-c3ccccc3)cc2)[c-](C)c1C.O=C([O-])c1ccccn1.[Cl-].[Ir+3] (stereo not drawn) [ZL43, [(η^5-C5Me4C6H4C6H5)Ir(η^2—C5H4N-2-CO2)Cl]]	too rapid to be observed

test system: 9-ethylguanine (9-EtG); test: Interactions with nucleobases: 9-EtG adduct formation (1H NMR); assay type: binding; settings: 10 min; 1 mM, 1 mol equiv 9-EtG (ZL33A: 2 mol equiv), D2O, 310 K
Description: (§1) Interactions with Nucleobases. The reaction of ZL01, ZL03, ZL04, ZL07, ZL25, ZL33, ZL37, ZL38, ZL43 and ZL54 and ZL33A with nucleobases typically involved addition of a solution containing 1-2 mol equiv of nucleobase in D2O, to an equilibrium solution of ZL01, ZL03, ZL04, ZL07, ZL25, ZL33, ZL37, ZL38, ZL43, ZL54 and ZL33A in a solution of 5% MeOD-d4/95% D2O (v/v). ^1H NMR spectra of these solutions were recorded at 310 K after various time intervals.
(§2) Since DNA is a potential target site for transition metal anticancer complexes,^18 nucleobase binding reactions of compounds ZL01, ZL03, ZL04, ZL07, ZL25, ZL33, ZL33A, ZL37, ZL38, ZL43 and ZL54 with nucleobase models 9-ethylguanine (9-EtG) and 9-ethyladenine (9-EtA), were investigated. Solutions of ZL01, ZL03, ZL04, ZL07, ZL25, ZL33, ZL37, ZL38, ZL43 and ZL54 (1 mM) (containing an equilibrium mixture of these complexes and their respective aqua adducts) with 1 mol equivalent of 9-EtG or 9-EtA in D2O were prepared, and ^1H NMR spectra were recorded at different time intervals.
Interactions with Nucleobases. Since DNA is a potential target site for transition metal anticancer complexes,^23 the binding of 9-ethylguanine (9-EtG) to complexes ZL47, ZL49, ZL69, ZL74 and ZL107 was studied.

SMILES	Reaction with 9-EtG, extent of adduct formation [%]
Cc1c(C)c(-c2ccc(-c3ccccc3)cc2)[c-](C)c1C.O=C([O-])c1ccccn1.[Cl-].[Ir+3] (stereo not drawn) [ZL43, [(η^5-C5Me4C6H4C6H5)Ir(η^2—C5H4N-2-CO2)Cl]]	100

same assay, conditions: 24 h; 1 mM, 1 mol equiv 9-EtG (ZL33A: 2 mol equiv), D2O, 310 K

SMILES	Reaction with 9-EtG, extent of adduct formation [%]
Cc1c(C)c(-c2ccc(-c3ccccc3)cc2)[c-](C)c1C.O=C([O-])c1ccccn1.[Cl-].[Ir+3] (stereo not drawn) [ZL43, [(η^5-C5Me4C6H4C6H5)Ir(η^2—C5H4N-2-CO2)Cl]]	100

test system: 9-ethyladenine (9-EtA); test: Interactions with nucleobases: 9-EtA adduct formation (1H NMR); assay type: binding; settings: 10 min; 1 mM, 1 mol equiv 9-EtA, D2O, 310 K
Description: as §1, §2

SMILES	Reaction with 9-EtA, extent of adduct formation [%]
Cc1c(C)c(-c2ccc(-c3ccccc3)cc2)[c-](C)c1C.O=C([O-])c1ccccn1.[Cl-].[Ir+3] (stereo not drawn) [ZL43, [(η^5-C5Me4C6H4C6H5)Ir(η^2—C5H4N-2-CO2)Cl]]	71

same assay, conditions: 24 h; 1 mM, 1 mol equiv 9-EtA, D2O, 310 K

SMILES	Reaction with 9-EtA, extent of adduct formation [%]
Cc1c(C)c(-c2ccc(-c3ccccc3)cc2)[c-](C)c1C.O=C([O-])c1ccccn1.[Cl-].[Ir+3] (stereo not drawn) [ZL43, [(η^5-C5Me4C6H4C6H5)Ir(η^2—C5H4N-2-CO2)Cl]]	71

test system: human ovarian A2780 cancer cells; test: Cancer cell cytotoxicity, SRB assay; assay type: cell-based; settings: 24 h exposure, 72 h recovery, SRB; read-out: A2780 IC50
Description: Cancer Cell Cytotoxicity. After plating, human ovarian A2780 cancer cells were treated with Ir^III complexes on day 3 at concentrations ranging from 0.5 μM to 100 μM. Solutions of the Ir^III complexes were made up in 0.125% DMSO to assist dissolution. Stock solutions of the IrIII complexes were firstly prepared in DMSO to assist dissolution, and then diluted into 0.9% saline and medium. After plating 5000 A2780 cells per well on day 1, IrIII complexes were added to the cancer cells on day 3 at concentrations ranging from 0.05 μM to 100 μM. Cells were exposed to the complexes for 24 h, washed, supplied with fresh medium, allowed to grow for three doubling times (72 h), and then the protein content measured (proportional to cell survival) using the sulforhodamine B (SRB) assay.^15 […]. The standard errors are based on two independent experiments of three replicates each.

SMILES	IC50 [µM]
Cc1c(C)c(-c2ccc(-c3ccccc3)cc2)[c-](C)c1C.O=C([O-])c1ccccn1.[Cl-].[Ir+3] (stereo not drawn) [ZL43, [(η^5-C5Me4C6H4C6H5)Ir(η^2—C5H4N-2-CO2)Cl]]	16.3
